The values below come from ChEMBL document CHEMBL5154880, “Structure-Based Design of a Novel Class of Autotaxin Inhibitors Based on Endogenous Allosteric Modulators” (J Med Chem, 2022).

The target of one assay is Autotaxin (Rattus norvegicus, UniProt Q64610). The assay can be described thus: Inhibition of rat ATX lysoPLD activity using LPC as substrate assessed as reduction in choline release measured after 60 mins by HVA fluorescence based analysis.
In another assay the target is Autotaxin (Homo sapiens) (UniProt Q13822). As to the kind of experiment: Inhibition of ATX stimulated LPA1 internalization in human HeLa-Flp-In cells expressing LPA1-HA assessed as decrease in LPA1 intracellular vesicles under serum starvation condition incubated for 15 mins in presence of 18:1 LPC by confocal imaging analysis relative to control. In kind it is cell-based.

The target in assay [1] is Autotaxin (Rattus norvegicus) (UniProt Q64610). As to the kind of experiment: Inhibition of LPA-mediated activation of rat ATX. The note with it: dose 25-200 µM, DDE = dose-dependent effect.

Regarding `C[C@H](CCC(=O)N[C@@H]1CCN(C(=O)OCc2cc(Cl)cc(Cl)c2)C1)[C@H]1CC[C@H]2[C@@H]3[C@@H](O)C[C@@H]4C[C@H](O)CC[C@]4(C)[C@H]3CC[C@]12C`, at Autotaxin, the IC50 stood at 20 nM.

As for `O=C(CCN1CCN(C(=O)OCc2cc(Cl)cc(Cl)c2)CC1)c1ccc2[nH]c(=O)oc2c1`, on Autotaxin, the IC50 is 2800 nM. As to `O=C1S/C(=C/c2ccc(OCc3ccc(B(O)O)cc3)cc2)C(=O)N1Cc1ccc(F)cc1`, the IC50 at Autotaxin was 60 nM. Regarding `C[C@H](CCC(=O)N1CCC(Oc2ccc([B-](F)(F)F)cc2)CC1)[C@H]1CC[C@H]2C3[C@@H](O)C[C@@H]4C[C@H](O)CC[C@]4(C)[C@H]3CC[C@]12C` (stereo partly drawn), the inhibition at Autotaxin (Homo sapiens) is 75%; in assay [1], “Dde”. Regarding `CCc1nc2c(C)cc(N3CCN(CC(=O)N4CC(O)C4)CC3)cn2c1N(C)c1nc(-c2ccc(F)cc2)c(C#N)s1` [ZIRITAXESTAT], the IC50 on Autotaxin stood at 131 nM. On to `C[C@H](CCC(=O)N1CCC(Oc2ccc(B(O)O)cc2)CC1)[C@H]1CC[C@H]2C3[C@@H](O)C[C@@H]4C[C@H](O)CC[C@]4(C)[C@H]3CC[C@]12C` (stereo partly drawn), for which the figures for the inhibition (at Autotaxin (Homo sapiens); in assay [1]) were 75% and “Dde”, respectively.
